From patent US20020039778A1, “Isolated and purified DNA molecule and protein for the degradation of triazine compounds” (Regents of the University of Minnesota, priority 1995, published 2002)

Legend:
[1] = molecular target: T1, atrazine chlorohydrolase (AtzA) (Pseudomonas sp., UniProt P72156); test: Substrate range of purified AtzA in vitro; assay type: biochemical, Pseudomonas sp. strain ADP; design: made in house; host or cells: E. coli transformed with pMD4 (1.9-kb AvaI genomic fragment in pACYC184); settings: purified enzyme in vitro
Description: High performance liquid chromatography (HPLC) analysis was performed using a Hewlett-Packard HP 1090 Liquid Chromatograph system equipped with a photodiode array detector and interfaced to an HP 79994A Chemstation. […] Linear gradients of 0-6 minutes, 10-25% acetonitrile (ACN); 6-21 minutes, 25-65% ACN; 21-23 minutes, 65-100% ACN; and 23-25 minutes 100% ACN, were used. Spectral data of the column eluent was acquired between 200-400 nm (12 nm bandwidth per channel) at a sampling frequency of 640 milliseconds. Spectra were referenced against a signal at 550 nm.
The solution was loaded onto a Mono Q HR 16/10 Column (Pharmacia LKB Biotechnology, Uppsala, Sweden). The column was washed with 25 mM MOPS buffer (pH 6.9), and the protein was eluted with a 0-0.5 M KCl gradient. Protein eluting from the column was monitored at 280 nm by using a Pharmacia U.V. protein detector. Pooled fractions containing the major peak were dialyzed overnight against 1 liter 25 mM MOPS buffer (pH 6.9). The dialyzed material was assayed for atrazine degradation ability by using HPLC analysis (see above) and analyzed for purity by sodium dodecyl sulfate (SDS) polyacrylamide gel electrophoreses (Laemlli).
The AtzA protein was examined for its ability to degrade various triazine compounds in vitro.

[2] = tested on: Pseudomonas species strain ADP; test: Effect of simple nitrogen sources on atrazine degradation (plate clearing); assay type: cell-based; settings: solid media with 500 ppm atrazine, 2 weeks of incubation at 28° C. or 37° C.
Description: (§1) Analytical methods: plate assays, high performance liquid chromatography (HPLC), thin layer chromatography (TLC), and liquid-liquid partitioning analyses. Atrazine or hydroxyatrazine were incorporated in solid LB or minimal medium, as described in Mandelbaum et al., Appl. Environ. Microbiol., 61, 1451-1457 (1995), at a final concentration of 500 μg/ml to produce an opaque suspension of small particles in the clear agar. The degradation of atrazine or hydroxyatrazine by wild-type and recombinant bacteria was indicated by a zone of clearing surrounding colonies.

[3] = tested on: E. coli DH5α (pMD1 or pMD2); test: as above; assay type: cell-based, Escherichia coli
Description: as §1

[4] = molecular target: T2, N-ethylammeline chlorohydrolase (TrzA) (Gordonia rubripertincta, UniProt Q52725); settings: cited from earlier work
T2 sequence (Q52725 1-477): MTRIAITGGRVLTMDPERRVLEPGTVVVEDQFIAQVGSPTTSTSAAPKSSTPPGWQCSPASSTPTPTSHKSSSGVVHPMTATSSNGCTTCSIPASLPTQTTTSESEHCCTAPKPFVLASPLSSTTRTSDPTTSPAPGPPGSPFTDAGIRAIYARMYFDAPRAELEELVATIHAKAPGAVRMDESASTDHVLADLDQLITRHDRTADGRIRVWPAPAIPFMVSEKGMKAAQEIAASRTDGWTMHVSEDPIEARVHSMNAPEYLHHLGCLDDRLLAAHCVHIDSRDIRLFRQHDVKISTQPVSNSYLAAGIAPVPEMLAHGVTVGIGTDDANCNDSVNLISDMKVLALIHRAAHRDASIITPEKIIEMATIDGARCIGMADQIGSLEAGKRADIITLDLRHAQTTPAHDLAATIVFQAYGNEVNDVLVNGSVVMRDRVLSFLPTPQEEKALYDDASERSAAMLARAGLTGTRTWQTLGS

[5] = tested on: B. japonicum strain USDA 123 (pMD1); test: Atrazine degradation by Bradyrhizobium japonicum carrying pMD1 (plate clearing, HPLC); assay type: cell-based
Description: Atrazine degradation gene expressed in Bradyrhizobium japonicum. […] The pMD1 was transferred from E. coli DH5α (pMD1) to B. japonicum strains USDA 123 by conjugation. This was done by using helper plasmid pRK2073 and the triparental mating procedure of Leong et al., J. Bio. Chem, 257, 8724-8730 (1982). This was done using a modified patch mating technique. Equal quantities of E. coli DH5α (pMD1), […] and spread to the size of a nickel. The patch was incubated for 4 days at 28° C. and the resulting bacterial growth was removed from the pate, serially diluted in 0.85% NaCl plus 0.01% tween 80, and spread onto the surface of minimal AG plates (Ag without yeast extract) containing 60 μg/ml tetracycline. Plates were incubated for 2 weeks at 28° C. […] Atrazine degradation was verified by HPLC analysis. The identity of transconjugants was verified by using strain specific fluorescent antibodies prepared according to Schmidt et al., J. Bacteriol., 95, 1987-1992 (1968).

[6] = molecular target: T1, atrazine chlorohydrolase (AtzA); test: Enzyme kinetics of purified AtzA (HPLC)
Description: (§2) Enzyme Kinetics. […] The reactions were stopped by boiling the reaction tubes at specific times, the addition of 500 μl acetonitrile and rapid freezing at −80° C. Thawed samples were centrifuged at 14,000 rpm for 10 minutes, the supernatants were filtered through a 0.2 μM filter, and placed into crimp-seal HPLC vials. HPLC analysis was done as described above.

CCNc1nc(Cl)nc(NC(C)C)n1 = test: purified protein, by the assay type; settings: other: purified AtzA 50 μg/ml, 25 mM MOPS pH 6.9, room temperature
Description: as §2

[7] = protein concentration of 50 mg/liter

T1 sequence (P72156 whole entry, the tested form may be a part): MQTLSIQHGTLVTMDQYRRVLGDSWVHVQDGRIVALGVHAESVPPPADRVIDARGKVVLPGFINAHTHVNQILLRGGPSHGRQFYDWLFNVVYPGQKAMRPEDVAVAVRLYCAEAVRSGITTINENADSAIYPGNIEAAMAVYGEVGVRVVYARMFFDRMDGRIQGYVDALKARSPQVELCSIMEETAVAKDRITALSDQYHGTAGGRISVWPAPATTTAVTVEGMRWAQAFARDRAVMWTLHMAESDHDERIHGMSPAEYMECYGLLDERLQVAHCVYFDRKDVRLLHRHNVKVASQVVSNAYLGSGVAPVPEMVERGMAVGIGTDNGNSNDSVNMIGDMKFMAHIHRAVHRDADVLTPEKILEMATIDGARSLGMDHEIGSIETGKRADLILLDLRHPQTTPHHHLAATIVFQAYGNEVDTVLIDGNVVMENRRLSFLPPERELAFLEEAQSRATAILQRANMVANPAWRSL

## CCNc1nc(Cl)nc(NC(C)(C)C)n1 [Tertbutylazine, 2-chloro-4-ethylamino-6-terbutylamino-s-triazine]
[1]
  Degradation of substrate by AtzA: not substrates

## Nc1nc(N)nc(N)n1 [Melamine, 2,4,6-triamino-s-triazine]
[1]
  Degradation of substrate by AtzA: not substrates
[1]; listed as melamine
  Degradation of substrate by AtzA: does not degrade

## Cl.N [ammonium chloride]
[2]
  ammonium chloride concentration sufficient to inhibit visible clearing of atrazine: 0.6 to 1.2 mM
[3]; E. coli DH5α (pMD1 or pMD2) vs Pseudomonas strain ADP
  tolerance for ammonium chloride with concomitant atrazine degradation, relative to wild-type: 40-80 fold
[3]; solid media with 500 ppm atrazine
  ammonium chloride concentration in whose presence atrazine degradation (clearing) was observed: ≤ 48 mM

## CCNc1nc(N)nc(Cl)n1 [Desisopropylatrazine, 2-chloro-4-ethylamino-6-amino-s-triazine]
[4]
  Degradation of substrate by TrzA: ability to dechlorinate
[4]; reported for the related triazine hydrolase TrzA
  Km: 82 µM
[1]; listed as deisopropylatrazine
  Degradation of substrate by AtzA: ability to dechlorinate

## CCNc1nc(Cl)nc(NC(C)C)n1 [Atrazine, 2-chloro-4-ethylamino-6-isopropylamino-1,3,5-s-triazine]
[4]
  Degradation of substrate by TrzA: does not degrade
[5]; AG media plates containing up to 500 ppm atrazine
  time to clear atrazine on plates: 10 days
[5]; supplied atrazine 33 ppm
  atrazine in overnight culture broth by HPLC: no atrazine detectable
[6]; [7]
  time to degrade about 100 μM of atrazine to about 1 μM: about 1.35 hours
  time to degrade about 30 ppm of atrazine to about 3 ppb: about 2.6 hours
[6]; read-out: Km of AtzA for atrazine, purified AtzA 50 μg/ml, 25 mM MOPS pH 6.9, room temperature
  Km: 125 µM

## CCNc1nc(Cl)nc(NCC)n1 [Simazine, 2-chloro-4,6-diethylamino-s-triazine]
[4]
  Degradation of substrate by TrzA: does not degrade

## atrazine chlorohydrolase (AtzA) (Pseudomonas sp. ADP)
CCNc1nc(Cl)nc(NC(C)C)n1
  Km: 125 µM
